Source: patent US5041535A, “Antileukemic and immunostimulant peptides” (Richter Gedeon Vegyeszeti Gyar Rt., priority 1986, dated 1991)

Experiments:
[1] = tested on: human K-562 erythroleukaemical cell-line; test: Inhibition of the proliferation of tumor cells (K-562); format: cell-based; details: 72nd hour after treatment, percentage of the control
Method: In the test human K-562 erythroleukaemical cell-line is used (Karolinska Institute, Stockholm). Incubation is carried out in a nutrient medium designated RPMI-1640 (manufactured by Flow, Great Britain) comprising 10% of foetal calf serum, at a temperature of 37° C., in a humidified incubator containing 3% of carbon dioxide, in plastic dishes. Every point of measurement corresponds to the average of the data measured in three dishes, each. At the beginning of the test the dilution amounts to 0.5×10^5 cells/ml. Treatment is carried out 24 hours after dilution in a manner that the medium is not changed after the treatment. The cells are counted for 96 hours after dilution every 24th hour wit the aid of a Buerker chamber.
Under the effect of the peptide in the 24th hour after treatment the cell number stagnates and later it increases to a very small extent. […] The tumor-cell division inhibiting effect of the new peptides is summarized in Table 1 (72 hours after treatment). The rate of inhibition is expressed in the percentage of the control. It clearly appears from the data of the Table that the tested peptides inhibit the proliferation of human K-562 erythroleukaemic cells.

[2] = tested on: inflammation induced by oxozolone; test: Dermatitis test induced with oxazolone; format: in vivo, CFLP mice; details: 24th hour after treatment, ear weight increase
Method: In this test a modified pharmacological model of D. P. Evans et al. [Br. J. Pharmac. 43, 403-488 (1971)] is used.
The abdominal skin of male CFLP mice weighing 20-22 g is painted after the removal of the hair with 0.1 ml of a 2% solution of oxazolon (4-ethoxymethyl-2-phenyl-oxazoline, manufacturer Sigma) in sunflower oil. On the right ear of the test animals 7 days after sensitization (painting) inflammatory reaction is induced with the aid of 10 μl of a 2% acetonous oxazolone solution and simultaneously the animals are treated with a 1 or 2 mg/kg, respectively, i.p. does of the test compound. The test compound is dissolved in a physiological sodium chloride solution in such a concentration that the active ingredient content corresponding to the dose should be dissolved in a volume of 0.5 ml/10 g animal body weight.
The antiinflammatory effect is determined as follows: the animals are sacrificed in the 24th hour after treatment, whereupon the right and left ears are cut off. The percentual weight increase of the right ear related to the left ear is characteristic of the rate of inflammation induced during the test, while the percentual reduction of weight increase of the treated animals related to the untreated control is proportional to the antiinflammatory effect. In Table 4 the reduction of weight increase (antiinflammatory effect) achieved by the test compounds is disclosed, as the percentage of the untreated control.

[3] = tested on: lymphocytes inhibited by Azathioprine; test: E-rosetta test inhibited by Azathioprine; format: cell-based
Method: Inhibition of the proliferation of T-lymphocytes is tested in the E-rosetta test inhibited by Azathioprine [6-(1-methyl-4-nitroimidazole-5-yl-thio)-purine; Thymus 1, 195 (1980)].
To 200 μl of a healthy lymphocyte cell-suspension 500 μl/ml of Azathioprine and 200 μl of a separate dilution of the test compound in HBBS buffer (manufacturer: Flow, Great Britain) are added (concentration range: 10^-3 to […]). The mixture is incubated at a temperature of 37° C. in air containing 5% of carbon dioxide for 60 minutes, whereupon 200 μl of a 1% sheep erythrocyte suspension are added. The mixture thus-obtained is centrifuged at 1,000 r.p.m. for 5 minutes, the supernatant is removed by decanting and in the suspension the lymphocytes forming E-rosetta are counted under a microscope from at least 400 cells.
Under the effect of the peptides the E-rosetta forming activity of the lymphocytes inhibited by Azathioprine increases to different extent. […] It appears from the data of Table 2 that the tested peptides increase the E-rosetta forming capacity of inhibited lymphocytes, i.e. the peptides of the present invention show immunostimulant effect.

Lewis Lung Tumor (LLT) = test: Tumor metastasis inhibiting effect; format: in vivo, C57 B1 mice; details: single 10 mg/kg i.p., 18th day
Method: 20 g male C57 B1 mice divided into groups consisting of 5 animals each, are injected with a Lewis Lung Tumor (LLT) cell-suspension. The said cell-suspension is administered into the tail vein, in a dose of 10^5 cells/mouse. Twenty-four hours after the administration of the tumor-cells the animals are treated with a single 10 mg/kg i.p. dose of the test compound. On the 18th day following infection with the tumor the animals are sacrificed and the cancer noduli appearing in the lungs are counted under a stereomicroscope. Animals not treated with peptide serve as control. In Table 8 the results obtained with Glp-Lys-NH2 dipeptide amide are disclosed.

[4] = tested on: antibody production inhibited by cyclophosphamide; test: Effect on antibody production in mice treated with cyclophosphamide; format: in vivo, CELP mice; details: cyclophosphamide 100 mg/kg i.p., titer on 6th day
Method: The effect on in vivo antibody production is tested on CELP mice treated with a 100 mg/kg body weight dose of cyclophosphamide {2-[bis-(2-chloroethyl)-amino]-tetrahydro-2H-1,3,2-oxaza -phosphorine-2-oxide; method: Z. Naturforsch. 35B, 1476 (1980)}. The mice are intraperitoneally immunized with a 1% sheep erythrocyte suspension previously washed three times with a 0.9% sodium chloride solution after 10 minutes of centrifuging at 2,500 r.p.m. Simultaneously with immunization carried out on the 0. day, the activity of the immune system is suppressed by means of treatment with a 100 mg/kg i.p. does of cyclophosphamide. On the 3rd day of the test the peptides are administered to the animals intraperitoneally in a dose of 5, 50 and occasionally 100 mg/kg respectively. On the 6th day of the test blood is taken retroorbitally from the mice and the anti-sheep erythrocyte titer of the serum is determined. […] The effect of the peptides is expressed as percentage of the relief of inhibition (G %).

PEC cells [5] = test: Phagocytosis inhibited by cyclophosphamide, non-simultaneously administered cyclophosphamide and peptide; format: in vivo, CFLP mice; details: CY 80 mg/kg p.o., CY alone 112.1 ± 6.4, control 221 ± 9.4
Method: (§1) Male CFLP mice weighing 22-23 g are divided into five groups of 8-12 animals each. The animals belonging to the test groups (all groups except the control one) are treated for two days once a day with a 80 mg/kg p.o. dose of cyclophosphamide and the animals of three of the said groups are treated simultaneously with the administration of cyclophosphamide with a 0.1, 1.0 and 10 mg/kg s.c. dose, respectively, of Glp-Lys-NH2 -mandelate dissolved in a physiological soidum chloride solution. On the 3rd day of the test the yeast cell incorporating capacity of the PEC cells is determined. The x±S.E.M. values disclosed in the Table stand for the number of yeast cells incorporated by the 100 PEC cells. One proceeds as described in test a) except that the peptide is administered to the animals 6 hours after treatment with cyclophosphamide. The test is evaluated as described above.

[6] = tested on: peritoneal exsudatum cells (PEC); test: Effect on phagocytosis, in vivo; parameters: species or system CFLP mice; details: 24th hour after treatment, control 179.7 ± 3.6
Method: Male CFLP mice having a body of weight of 22-23 g are divided into four groups of 8-12 animals each. The animals of the test groups are treated with Glp-Lys-NH2 -mandelate for 2 days. The treatment is carried out by administering a 0.1, 1 or 10 mg/kg s.c. dose, respectively, of the active ingredient once a day, in the form of a solution in a physiological sodium chloride solution. In the 24th hour after the last treatment the yeast cell incorporating capacity of the peritoneal exsudatum cells (PEC) is determined. In the Table the x±S.E.M. data relate to the number of yeast cells incorporated into the 100 PEC cells.

PEC cells [7] = test: Phagocytosis inhibited by cyclophosphamide, simultaneously administered cyclophosphamide and peptide; format: in vivo, CFLP mice; details: 2 days, CY alone 102.5 ± 4.8, control 186.3 ± 7.8
Method: as §1, with “cells.” for “cells. One proceeds as described in test a) except that the peptide is administered to the animals 6 hours after treatment with cyclophosphamide. The test is evaluated as described above.”

## Glp-Lys-NH2 [Peptide 1]
[1]; peptide 1/ug/ml
  Inhibition of the proliferation of K-562 cells, inhibition (c %): 20%
[1]; peptide 10/ug/ml
  Inhibition of the proliferation of K-562 cells, inhibition (c %): 42%
[2]; 1 mg/kg i.p.
  Inhibition of inflammation induced by oxozolone, inhibition as % of control: 62%
[2]; 2 mg/kg i.p.
  Inhibition of inflammation induced by oxozolone, inhibition as % of control: 61%
[3]; peptide 10^-3 mole/l
  Relief of inhibition (R %) of E-rosetta forming activity: 33.0%
[3]; peptide 10^-5 mole/l
  Relief of inhibition (R %) of E-rosetta forming activity: 9.9%
[3]; peptide 10^-7 mole/l
  Relief of inhibition (R %) of E-rosetta forming activity: 36.6%
[3]; peptide 10^-9 mole/l
  Relief of inhibition (R %) of E-rosetta forming activity: 25.0%
[3]; peptide 10^-11 mole/l
  Relief of inhibition (R %) of E-rosetta forming activity: 10.0%
Lewis Lung Tumor (LLT); treated animal No. 1, untreated control 15
  No. of metastases in the lungs: 0
Lewis Lung Tumor (LLT); treated animal No. 2, untreated control 20
  No. of metastases in the lungs: 2
Lewis Lung Tumor (LLT); treated animal No. 3, untreated control 16
  No. of metastases in the lungs: 1
Lewis Lung Tumor (LLT); treated animal No. 4, untreated control 12
  No. of metastases in the lungs: 2
Lewis Lung Tumor (LLT); treated animal No. 5, untreated control 11
  No. of metastases in the lungs: 5
[4]; peptide 5 mg/kg i.p. on 3rd day
  Restoration of primary immune answer, G %: 123.8%
[4]; peptide 50 mg/kg i.p. on 3rd day
  Restoration of primary immune answer, G %: 133.3%

## Glp-Lys-NH2 -mandelate
PEC cells [5]; peptide 0.1 mg/kg s.c. 6 hours after CY
  Phagocyte activity x ± S.E.M. (number of yeast cells incorporated by the 100 PEC cells): 226.5 ± 8.8
PEC cells [5]; peptide 1.0 mg/kg s.c. 6 hours after CY
  Phagocyte activity x ± S.E.M. (number of yeast cells incorporated by the 100 PEC cells): 252.2 ± 7.4
PEC cells [5]; peptide 10 mg/kg s.c. 6 hours after CY
  Phagocyte activity x ± S.E.M. (number of yeast cells incorporated by the 100 PEC cells): 257.3 ± 9.3
[6]; 0.1 mg/kg s.c. once a day for 2 days
  Phagocyte activity x ± S.E.M. (number of yeast cells incorporated into the 100 PEC cells): 182.3 ± 3.5
[6]; 1.0 mg/kg s.c. once a day for 2 days
  Phagocyte activity x ± S.E.M. (number of yeast cells incorporated into the 100 PEC cells): 209.3 ± 8.6
[6]; 10 mg/kg s.c. once a day for 2 days
  Phagocyte activity x ± S.E.M. (number of yeast cells incorporated into the 100 PEC cells): 244.8 ± 4.3
PEC cells [7]; CY 80 mg/kg p.o. + peptide 0.1 mg/kg s.c. simultaneously
  Phagocyte activity x ± S.E.M. (number of yeast cells incorporated by the 100 PEC cells): 241.7 ± 20.3
PEC cells [7]; CY 80 mg/kg p.o. + peptide 1.0 mg/kg s.c. simultaneously
  Phagocyte activity x ± S.E.M. (number of yeast cells incorporated by the 100 PEC cells): 215.2 ± 21.5
PEC cells [7]; CY 80 mg/kg p.o. + peptide 10 mg/kg s.c. simultaneously
  Phagocyte activity x ± S.E.M. (number of yeast cells incorporated by the 100 PEC cells): 164.4 ± 13.8
